# From US20250144109A1, “Compositions for preventing or treating pulmonary arterial hypertension” (CHONG KUN DANG PHARMACEUTICAL CORP., priority 2022, published 2025)
# Experiments:
# [1] = test system: tubulin acetylation in HPAEC (Human pulmonary artery endothelial cells); assay: Tubulin acetylation in HPAEC by Western blot (anti-acetyl tubulin); format: cell-based; details: 4 hours at 37° C., concentration 0.1μ, FIG. 1
# Procedure: HPAEC (3.0×10^5 cells/well, Human pulmonary artery endothelial cells) pulmonary artery endothelial cells were seeded in a six-well plate, and then treated with drugs (compounds 43, 295, 296, 40, 239, and 285) at each concentration. In four hours later at 37° C., proteins were extracted with lysis buffer and quantified by Bradford method. 5 μg of proteins were dissolved in sample buffer, subjected to electrophoresis on 4-12% gradient gel, transferred to a nitrocellulose membrane for seven minutes, and blocked in a 3% BSA solution for one hour. Anti-acetyl tubulin (1:1,000) and GAPDH (1:2,000) were added to the 3% BSA solution, after which the membrane was immersed therein and reacted at 4° C. for 10 hours, and then washed three times with 1×TBST for 10 minutes, respectively. IgG-HRP antibody (1:5,000) was added to 5% BSA, after which the membrane was immersed therein and reacted at room temperature for one hour, and then washed three times with 1×TBST for 10 minutes, respectively. In above FIG. 1, a control group indicates cells not treated with the compounds of Synthesis Examples.
# HPAEC cells = assay: Cell viability (CCK-8) of TGF-β stimulated HPAEC cells; format: cell-based, Human; details: 1 μM drug with TGF-β 10 ng/ml, 48 hours, vs TGF-β only, FIG. 2
# Procedure: TGF-β stimulation to HPAEC cells, which are a model of pulmonary arterial hypertension disease, and the survival rate according to the compounds of Synthesis Examples 1 to 6 were confirmed through cell viability measurement.
# HPAEC (2.0×10^3 cells/well) cells were seeded in 96-well plate, and cultured for 24 hours in a serum free medium as starvation. 1 μM concentration of drugs (compounds 43, 295, 296, 40, 239, 285) were simultaneously treated with TGF-β (10 ng/ml) and cultured for 48 hours, after which cell viability was measured through CCK-8 assay, and the results thereof are shown in FIG. 2. In above FIG. 2, a control group indicates cells not treated with TGF-β and the compounds of Synthesis Examples, and “-” indicates cells treated only with TGF-β.
# [2] = test system: HPASMC (human pulmonary artery smooth muscle) cells; assay: Cell proliferation inhibition (CCK-8) in TGF-β stimulated HPASMC cells; format: cell-based; details: 1 μM drug with TGF-β 10 ng/ml, 24 hours, vs TGF-β only, FIG. 3
# Procedure: TGF-β stimulation to HPASMC (human pulmonary artery smooth muscle) cells, which are a model of pulmonary arterial hypertension disease, and a cell proliferation inhibition rate according to treatment with six compounds of Synthesis Examples 1 to 6 were confirmed through cell viability measurement.
# HPASMC (5.0×10^3 cells/well) cells were seeded in 96-well plate, and cultured for 24 hours in a serum free medium as starvation. 1 μM concentration of drugs (compounds 43, 295, 296, 40, 239, 285) were simultaneously treated with TGF-β (10 ng/ml) and cultured for 24 hours, after which cell viability was measured through CCK-8 assay, and the results thereof are shown in FIG. 3. In above FIG. 3, a control group indicates cells not treated with TGF-β and the compounds of Synthesis Examples, and “-” indicates cells treated only with TGF-β.
# [3] = test system: SD rats with monocrotaline (MCT)-induced pulmonary arterial hypertension; assay: MCT-induced pulmonary arterial hypertension animal model (survival, lung and ventricle weights, ECG); format: in vivo, rat; details: 20 mg/kg oral twice a day
# Procedure: SD rats having the following conditions were prepared.
# Rats, experimental animals, were divided into groups as follows in consideration of a body weight on the day before drug administration began.
# During a test period, the normal group was dosed with saline, and the control group (MCT+Vehicle) was subcutaneously dosed with a monocrotaline (MCT) aqueous solution once at 3 ml/Kg, and then dosed with a vehicle consisting of a mixed solution of cremophor EL, ethanol, and saline at a volume ratio of 1:1:8. A MCT aqueous solution was prepared to reach a concentration of 20 mg/mL in a solvent adjusted to pH 7.4 using a 1 N NAOH solution in 1 N HCL. After that, subcutaneous administration was performed by adjusting to […].
# The drug administration group was first subcutaneously dosed with the MCT aqueous solution at 3 ml/Kg once, and then orally dosed with compound 43 (the compound of Synthesis Example 1) at 20 mg/Kg twice a day during the test period (four weeks). The compound 43 was dissolved in a mixed solution of cremophor EL, ethanol, and saline at a volume ratio of 1:1:8, and then orally administered.
# All data were expressed as mean±standard error, and each group and the control group were compared using an unpaired T test (p<0.05) to determine the effect of each experimental group.
# After group separation and then administration of the MCT aqueous solution, the survival rate was evaluated by confirming a dead individual during the test period.
# The individual survival rate was calculated by reflecting the number of animals surviving in the corresponding week from the first 10 animals participating in the experiment for each group. Each number on the left side of the line graph means an individual survival rate % (number of surviving individuals/total number of animals participating in experiment).
# After four weeks of the test period, the lung and the heart were removed to measure the weight of the lung and the weight of left ventricle and right ventricle in each group, and the results are shown in FIGS. 5 and 6.
# After four weeks of the test period, the animal was subjected to inhalation anesthesia with isoflurane, and electrodes were attached to the limbs to measure the animal's electrocardiogram for more than 30 seconds. The result was measured using a Bio Amp ECG meter and analysis was performed using LabChart 8 software.
# [4] = MCT rats, after four weeks, vs control group
smiles,measurement,setting,value
"O=C(N1CCS(=O)(=O)CC1)N(Cc1ccc(-c2nnc(C(F)F)o2)cn1)c1cccc(F)c1 [Compound 296, N-((5-(5-(difluoromethyl)-1,3,4-oxadiazol-2-yl)pyridin-2-yl)methyl)-N-(3-fluorophenyl)thiomorpholine-4-carboxamide 1,1-dioxide]",tubulin acetylation (acetyl tubulin expression level),[1],tubulin acetylation was expressed
same,survival rate (cell viability) after TGF-β stimulation,HPAEC cells,improved
same,proliferation rate after TGF-β stimulation,[2],inhibited
"O=C(N1CCS(=O)(=O)CC1)N(Cc1ccc(-c2nnc(C(F)F)o2)cc1F)c1ccccc1 [Compound 40, N-(4-(5-(difluoromethyl)-1,3,4-oxadiazol-2-yl)-2-fluorobenzyl)-N-phenylthiomorpholine-4-carboxamide 1,1-dioxide]",tubulin acetylation (acetyl tubulin expression level),[1],tubulin acetylation was expressed
same,survival rate (cell viability) after TGF-β stimulation,HPAEC cells,improved
same,proliferation rate after TGF-β stimulation,[2],inhibited
"O=C(N1CCS(=O)(=O)CC1)N(Cc1ccc(-c2nnc(C(F)F)o2)cc1F)c1ccc(F)cc1 [Compound 285, N-(4-(5-(difluoromethyl)-1,3,4-oxadiazol-2-yl)-2-fluorobenzyl)-N-(4-fluorophenyl)thiomorpholine-4-carboxamide 1,1-dioxide]",tubulin acetylation (acetyl tubulin expression level),[1],tubulin acetylation was expressed
same,survival rate (cell viability) after TGF-β stimulation,HPAEC cells,improved
same,proliferation rate after TGF-β stimulation,[2],inhibited
"O=C(N1CCS(=O)(=O)CC1)N(Cc1ccc(-c2nnc(C(F)F)o2)cn1)c1cccc(Cl)c1 [Compound 239, N-(3-chlorophenyl)-N-((5-(5-(difluoromethyl)-1,3,4-oxadiazol-2-yl)pyridin-2-yl)methyl)thiomorpholine-4-carboxamide 1,1-dioxide]",tubulin acetylation (acetyl tubulin expression level),[1],tubulin acetylation was expressed
same,survival rate (cell viability) after TGF-β stimulation,HPAEC cells,improved
same,proliferation rate after TGF-β stimulation,[2],inhibited
"O=C(N1CCS(=O)(=O)CC1)N(Cc1ccc(-c2nnc(C(F)F)o2)cn1)c1ccc(F)cc1 [Compound 295, N-((5-(5-(difluoromethyl)-1,3,4-oxadiazol-2-yl)pyridin-2-yl)methyl)-N-(4-fluorophenyl)thiomorpholine-4-carboxamide 1,1-dioxide]",tubulin acetylation (acetyl tubulin expression level),[1],tubulin acetylation was expressed
same,survival rate (cell viability) after TGF-β stimulation,HPAEC cells,improved
same,proliferation rate after TGF-β stimulation,[2],inhibited
"O=C(N1CCS(=O)(=O)CC1)N(Cc1ccc(-c2nnc(C(F)F)o2)cn1)c1ccccc1 [Compound 43, N-((5-(5-(difluoromethyl)-1,3,4-oxadiazol-2-yl)pyridin-2-yl)methyl)-N-phenylthiomorpholine-4-carboxamide 1,1-dioxide]",tubulin acetylation (acetyl tubulin expression level),[1],tubulin acetylation was expressed
same,individual survival rate,"[3]; MCT 50 mg/kg s.c. once, four weeks, vehicle control 50%, FIG. 4",90%
same,JT interval (ECG),[3]; [4],significantly reduced
same,QT interval (ECG),[3]; [4],significantly reduced
same,QTc (ECG),[3]; [4],significantly reduced
same,ratio of right ventricle weight to left ventricle weight,"[3]; MCT rats, after four weeks, vs control group, FIG. 6",significantly reduced
same,survival rate (cell viability) after TGF-β stimulation,HPAEC cells,improved
same,proliferation rate after TGF-β stimulation,[2],inhibited
